{
  "source": "patent US5298621A",
  "about": "“Oligopeptide derivatives of ipoxantine endowed with immunomodulating activity and pharmaceutical compositions containing same” (Sigma-Tau Industrie Farmaceutiche Riunite S.p.A., priority 1990, dated 1994)",
  "test_system": "DTH reaction vs. SRBC",
  "assay": "Delayed type hypersensitivity test (DTH) vs. SRBC in mice",
  "assay_type": "in vivo",
  "settings": "25 mg/kg/day i.p. from day -3 to day +3 respect to the immunization",
  "protocol": "Test 6 Assessment of the effect of ST 785 and ST 789 on the delayed type hypersensitivity test (DTH).\nMale B6 D2 F1 mice (Charles River, Italy) aged 6, 12 and 16 weeks (8 animals per group) were used.\nThe compounds were administered i.p., 25 mg/kg/day from day -3 to day +3 (immunization at day 0). Immunization was carried out by s.c. injection in the upper dorsal zone of the animals of 0.2 mL of SRBC (5×10^7 cells/mL).\nFour days following the sensitizing injection, the animals were administered the challenge injection to bring about the delayed hypersensibility reaction. 50 μL of SRBC solution (2×10^9 cells/mL) were injected in the left hind foot-pad of the mice. The contralateral foot-pad received an equal volume of PBS. 24 hours after the challenge injection, the animals were sacrificed by cervical dislocation. The legs were amputated and the differences in weight between the left leg (treated with the challenge injection) and the contralateral leg were evaluated.\nThe mean of weight differences in the legs of the animals of the same experimental group was determined; the differences in the mean values calculated for each experimental group were processed using Student's \"t\" test (Biostatistics in Pharmacology, loc cit.).\nThe experimental procedure which was used is described by Miller, T. E. et al, (1973), Immunopotentiation with BCG. Modulation of the response to sheep red blood cells. J. Cancer Inst., 51:1669.",
  "data": [
    {"smiles": "N=C(N)NCCC[C@H](NC(=O)OCCCCCn1cnc2c(=O)[nH]cnc21)C(=O)O", "note": "[ST 789, N-5-(ipoxantin-9-yl) pentyloxycarbonylarginine, reference compound]", "values": [
      {"measurement": "Mean difference in weight (mg ± S.E.) between treated and untreated foot-pads", "result": "34.9 ± 0.76", "unit": "mg"}
    ]}
  ]
}
